Here are results for 23 compounds from patent US20070004763A1, “AMINOQUINOLINE AND AMINOQUINAZOLINE KINASE MODULATORS” (priority 2005, published 2007).

This test concerns the target T1, TrkB (Homo sapiens, UniProt Q16620).
T1 construct: purchased Upstate 14-507M
In words: Trk B Fluorescence Polarization Kinase Assay. The test is classed as biochemical. The note with it: 150 uM ATP, 50 nM TrkB; uncertainty ±10%. The method, then: The compounds of the present invention are also specific inhibitors of TrkB. Selection of preferred compounds of Formula I for use as TrkB inhibitors was performed in the following manner. The TrkB assay utilized the fluorescein-labeled phosphopeptide and the anti-phosphotyrosine antibody included in the Panvera Phospho-Tyrosine Kinase Kit (Green) supplied by Invitrogen. When TrkB phosphorylated poly Glu4Tyr, the fluorescein-labeled phosphopeptide was displaced from the anti-phosphotyrosine antibody by the phosphorylated poly Glu4Tyr, thus decreasing the FP value. The TrkB kinase reaction was incubated at room temperature for 30 minutes under the following conditions: 50 nM TrkB (Upstate, catalog #14-507M), 20 ug/mL poly Glu4Tyr, 150 uM ATP, 5 mM MgCl2, 1% compound in DMSO. The kinase reaction was stopped with the addition of EDTA. The fluorescein-labeled phosphopeptide and the anti-phosphotyrosine antibody were added and incubated for 30 minutes at room temperature. Data points were an average of triplicate samples. Inhibition and IC50 data analysis were done with GraphPad Prism using a non-linear regression fit with a multiparamater, sigmoidal dose-response (variable slope) equation.

T1 sequence (Q16620 526-822 limits assumed): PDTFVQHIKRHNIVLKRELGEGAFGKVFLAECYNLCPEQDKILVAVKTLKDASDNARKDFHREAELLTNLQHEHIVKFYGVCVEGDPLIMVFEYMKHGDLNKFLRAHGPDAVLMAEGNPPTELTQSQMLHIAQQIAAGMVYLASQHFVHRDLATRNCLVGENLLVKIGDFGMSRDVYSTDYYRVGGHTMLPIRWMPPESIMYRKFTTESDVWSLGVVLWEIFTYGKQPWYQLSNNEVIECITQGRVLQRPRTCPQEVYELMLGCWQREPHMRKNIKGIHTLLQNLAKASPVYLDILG

In turn, `COc1cc2ncnc(N3CCCCC3COC(=O)Nc3ccc(C(C)C)cc3)c2cc1OC` (centres unmarked) [Compound 33, (4-Isopropyl-phenyl)-carbamic acid 1-(6,7-dimethoxy-quinazolin-4-yl)-piperidin-2-ylmethyl ester] gave an IC50 of 5 µM.

Compound `CC(C)c1ccc(NC(=O)OC2CCN(c3ccnc4ccccc34)C2)cc1` (centres unmarked) [Compound 34] had an IC50 of 7.6 µM.

As to `COc1cc2ncnc(N3CCC(NC(=O)Cc4ccc(C(C)C)cc4)C3)c2cc1OC` (centres unmarked) [Compound 35, N-[1-(6,7-Dimethoxy-quinazolin-4-yl)-pyrrolidin-3-yl]-2-(4-isopropyl-phenyl)-acetamide], the concentration for half-maximal inhibition (IC50) came out at 6.5 µM.

`COc1cc2ncc(C#N)c(N3CCC(OC(=O)Nc4ccc(C(C)C)cc4)C3)c2cc1OC` (centres unmarked) [Compound 37, (4-Isopropyl-phenyl)-carbamic acid 1-(3-cyano-6,7-dimethoxy-quinolin-4-yl)-pyrrolidin-3-yl ester] returned a concentration for half-maximal inhibition (IC50) of 8.48 µM.

Compound `CC(C)Oc1ccc(NC(=O)NC2CCN(c3ccnc4ccccc34)C2)cc1` (centres unmarked) [Compound 38, (4-Isopropoxy-phenyl)-3-(1-quinolin-4-yl)-pyrrolidin-3-yl-urea] returned an IC50 of 26.8 µM.

In turn, `CC(C)Oc1ccc(NC(=O)OC2CCN(c3ccnc4ccccc34)C2)cc1` (centres unmarked) [Compound 39] yielded an IC50 of 9.1 µM.

`COc1cc2ncc(C#N)c(N3CCC(OC(=O)Nc4ccc(OC(C)C)cc4)CC3)c2cc1OC` [Compound 40, (4-Isopropoxy-phenyl)-carbamic acid 1-(3-cyano-6,7-dimethoxy-quinolin-4-yl)-piperidin-4-yl ester] returned a 50% inhibitory concentration (IC50) of 11.8 µM.

With `CC(C)Oc1ccc(NC(=O)OC2CCN(c3ccnc4ccccc34)CC2)cc1` [Compound 41], the 50% inhibitory concentration (IC50) was 14 µM.

`COc1cc2ncc(C#N)c(N3CCC(OC(=O)Nc4ccc(C(C)C)cc4)CC3)c2cc1OC` [Compound 42, (4-Isopropyl-phenyl)-carbamic acid 1-(3-cyano-6,7-dimethoxy-quinolin-4-yl)-piperidin-4-yl ester] showed an IC50 of over 42 µM.

Regarding `COc1cc2ncnc(N3CCC(NC(=O)Nc4ccc(N5CCOCC5)cc4)C3)c2cc1OC` (centres unmarked) [Compound 43, 1-[1-(6,7-Dimethoxy-quinazolin-4-yl)-pyrrolidin-3-yl]-3-(4-morpholin-4-yl-phenyl)-urea], the IC50 amounted to 40.6 µM.

`COc1cc2ncnc(N3CCC(NC(=O)Nc4ccc(OC5CCC5)nc4)C3)c2cc1OC` (centres unmarked) [Compound 44, 1-(6-Cyclobutoxy-pyridin-3-yl)-3-[1-(6,7-dimethoxy-quinazolin-4-yl)-pyrrolidin-3-yl]-urea] displayed an IC50 of 4.88 µM.

Consider `COc1cc2ncnc(N3CCC(NC(=O)Nc4ccc(OC5CCCC5)nc4)C3)c2cc1OC` (centres unmarked) [Compound 45, 1-(6-Cyclopentyloxy-pyridin-3-yl)-3-[1-(6,7-dimethoxy-quinazolin-4-yl)-pyrrolidin-3-yl]-urea], for which 11.8 µM corresponded to half-maximal inhibition (IC50).

For the compound `COc1cc2ncnc(N3CCC(NC(=O)Nc4ccc(N5CCCC5)nc4)C3)c2cc1OC` (centres unmarked) [Compound 46, 1-[1-(6,7-Dimethoxy-quinazolin-4-yl)-pyrrolidin-3-yl]-3-(6-pyrrolidin-1-yl-pyridin-3-yl)-urea], the IC50 came to 24.8 µM.

As to `COc1cc2ncnc(N3CCC(NC(=O)Nc4ccc(N5CCCCC5)cc4)C3)c2cc1OC` (centres unmarked) [Compound 47, 1-[1-(6,7-Dimethoxy-quinazolin-4-yl)-pyrrolidin-3-yl]-3-(4-piperidin-1-yl-phenyl)-urea], the IC50 is 12 µM.

Consider `COc1cc2ncnc(N3CCC(NC(=O)Nc4ccc(Cl)cc4)C3)c2cc1OC` (centres unmarked) [Compound 48, 1-(4-Chloro-phenyl)-3-[1-(6,7-dimethoxy-quinazolin-4-yl)-pyrrolidin-3-yl]-urea], for which the IC50 is 16 µM.

The compound `COc1cc2ncnc(N3CCC(NC(=O)Nc4ccc(N5CCCC5)cc4)C3)c2cc1OC` (centres unmarked) [Compound 49, 1-[1-(6,7-Dimethoxy-quinazolin-4-yl)-pyrrolidin-3-yl]-3-(4-pyrrolidin-1-yl-phenyl)-urea] yielded a 50% inhibitory concentration (IC50) of 3.88 µM.

For `COc1cc2ncnc(N3CCC(NC(=O)Nc4ccc(C5CCCCC5)cc4)C3)c2cc1OC` (centres unmarked) [Compound 50, 1-(4-Cyclohexyl-phenyl)-3-[1-(6,7-dimethoxy-quinazolin-4-yl)-pyrrolidin-3-yl]-urea], the IC50 is over 46 µM.

`COc1cc2ncnc(N3CCC(NC(=O)Nc4ccc(Oc5ccccc5)cc4)C3)c2cc1OC` (centres unmarked) [Compound 51, 1-[1-(6,7-Dimethoxy-quinazolin-4-yl)-pyrrolidin-3-yl]-3-(4-phenoxy-phenyl)-urea]: half-maximal inhibition (IC50) was put at 2.74 µM.

The compound `COc1cc2ncnc(N3CCC(NC(=O)Nc4ccc(N(C)C)cc4)C3)c2cc1OC` (centres unmarked) [Compound 52, 1-[1-(6,7-Dimethoxy-quinazolin-4-yl)-pyrrolidin-3-yl]-3-(4-dimethylamino-phenyl)-urea] returned a concentration for half-maximal inhibition (IC50) of 22.7 µM.

`COc1cc2ncnc(N3CCC(NC(=O)Nc4ccc(OC5CCCC5)cc4)C3)c2cc1OC` (centres unmarked) [Compound 53, 1-(4-Cyclopentyloxy-phenyl)-3-[1-(6,7-dimethoxy-quinazolin-4-yl)-pyrrolidin-3-yl]-urea] showed an IC50 of 4.07 µM.

Turning to `COc1cc2ncnc(N3CCC(OC(=O)Nc4ccc(OC5CCCC5)cc4)C3)c2cc1OC` (centres unmarked) [Compound 54, (4-Cyclopentyloxy-phenyl)-carbamic acid 1-(6,7-dimethoxy-quinazolin-4-yl)-pyrrolidin-3-yl ester], half-maximal inhibition (IC50) required 44.6 µM.

In turn, `COc1cc2ncnc(N3CCC(OC(=O)Nc4ccc(OC5CCCC5)cc4)CC3)c2cc1OC` [Compound 55, (4-Cyclopentyloxy-phenyl)-carbamic acid 1-(6,7-dimethoxy-quinazolin-4-yl)-piperidin-4-yl ester] yielded an IC50 of over 46 µM.

`COc1cc2ncnc(N3CCC(COC(=O)Nc4ccc(OC5CCCC5)cc4)CC3)c2cc1OC` [Compound 56, (4-Cyclopentyloxy-phenyl)-carbamic acid 1-(6,7-dimethoxy-quinazolin-4-yl)-piperidin-4-ylmethyl ester] showed an IC50 of 6.58 µM.
